The subject of assay [1] is anaesthetised Wistar rats. The assay is described as follows: Blood pressure, heart rate and breathing rate of anaesthetised Wistar rats. The assay is classed as in vivo, rat. The protocol:
The mean arterial blood pressure (MAP) of anaesthetised Wistar rats was measured by a pressure transducer in the carotid artery. In ex vivo experiments, effects of AP39 were studied on noradrenaline precontracted rat aortic rings (see below). The single channel properties of intracellular chloride channels from rat heart were studied using the bilayer lipid membrane method (see below).
The catheter was inserted into the right jugular vein of male wistar rats or male spontaneously hypertensive (SHR) rats so as to reach the right atrium. Anesthesia (ZOLELIT, VIRBAC, 40 mg/kg to leg) and Xylazine 2%. AP39 solutions were prepared in 4 μl DMSO then mixed with 100 μl Krebs solution and immediately applied for 10 sec. (FIGS. 20, 21 and 22).
Blood pressure, heart rate and breathing rate were all measured at the same time, in accordance with Ling et al., 2008 Circulation 117 2351-2360.

For assay [2], the system named is adrenaline-precontracted rat aorta. In words: Relaxation of adrenaline precontracted rat aortic rings. As to conditions: AP39 1-5 μM, 200 nmol/l adrenaline, FIG. 23 A-C. Here is the method:
(§1) The rings of thoracic aorta (approx. 3-4-mm diameter) or mesenteric artery were prepared from male Wistar rats and were mounted for recording of isometric tension changes in pneumoxid-oxygenated (95% O2:CO2, 37° C.) Krebs-bicarbonate solution as described in Ling et al., 2008 Circulation 117 […]. The aortic ring was pre-contracted with 200 nmol/l adrenaline and the effect of AP39 was evaluated (FIG. 23).

In assay [3] the test system is HMEC. In words: Intracellular oxidative stress measurements (DCFDA assay). The assay is classed as cell-based, human. The protocol:
HMEC were incubated with H2S donor compounds for 5 hrs then H2O2, […] or SIN-1 were added for 2 hrs. Intracellular oxidative stress was then assessed using dichlorofluorescein diacetate (added at a final concentration of 10 μM) and fluorescence detected using a Gemini M2e microplate reader at 37° C. (excitation wavelength, 488 nm, emission wavelength 525 nm). The method was performed in accordance with the method described by M. Whiteman et al (Meths. Mol. Biol., 2008, 476, 29-50).

The target in assay [4] is T1, CAv3.1 T-type calcium channels (Homo sapiens, UniProt O43497).
T1 construct: expressed in transfected cells; host or cells: HEK 293 cells, permanently transfected
In words: T-type calcium channel CAv3.1 whole cell patch-clamp in HEK 293 cells. It is filed as cell-based. As to conditions: HEK293 cells, concentration and time-dependent, holding potential −100 mV, FIGS. 29-31. The protocol: CAv3.1 calcium channels were permanently transfected in human embryonic kidney (HEK 293) cells and the calcium currents were measured by a patch-clamp method in the whole cell configuration, from a holding potential −100 mV.
The effect of four different concentrations of AP39 on the current through a Cav3.1 channel was tested (FIGS. 29-31).
A general note: In patch-clamp work, channel activity is measured electrically.

Assay [5] relates to mesenteric arteries. In words: Relaxation of adrenaline precontracted rat mesenteric arteries. Conditions: AP39 1-5 μM, FIG. 23 D. Here is the method: as §1
Where [6] appears, read: anaesthetised Wistar rats, 1.6 μM/kg and 2.7 μM/kg AP39 injected, FIG. 20.
Setting [7] is: anaesthetised Wistar rats, AP39 4 μM/kg, FIG. 22.

“Also recorded” adds a separate entry of the source.

T1 sequence (O43497 whole entry): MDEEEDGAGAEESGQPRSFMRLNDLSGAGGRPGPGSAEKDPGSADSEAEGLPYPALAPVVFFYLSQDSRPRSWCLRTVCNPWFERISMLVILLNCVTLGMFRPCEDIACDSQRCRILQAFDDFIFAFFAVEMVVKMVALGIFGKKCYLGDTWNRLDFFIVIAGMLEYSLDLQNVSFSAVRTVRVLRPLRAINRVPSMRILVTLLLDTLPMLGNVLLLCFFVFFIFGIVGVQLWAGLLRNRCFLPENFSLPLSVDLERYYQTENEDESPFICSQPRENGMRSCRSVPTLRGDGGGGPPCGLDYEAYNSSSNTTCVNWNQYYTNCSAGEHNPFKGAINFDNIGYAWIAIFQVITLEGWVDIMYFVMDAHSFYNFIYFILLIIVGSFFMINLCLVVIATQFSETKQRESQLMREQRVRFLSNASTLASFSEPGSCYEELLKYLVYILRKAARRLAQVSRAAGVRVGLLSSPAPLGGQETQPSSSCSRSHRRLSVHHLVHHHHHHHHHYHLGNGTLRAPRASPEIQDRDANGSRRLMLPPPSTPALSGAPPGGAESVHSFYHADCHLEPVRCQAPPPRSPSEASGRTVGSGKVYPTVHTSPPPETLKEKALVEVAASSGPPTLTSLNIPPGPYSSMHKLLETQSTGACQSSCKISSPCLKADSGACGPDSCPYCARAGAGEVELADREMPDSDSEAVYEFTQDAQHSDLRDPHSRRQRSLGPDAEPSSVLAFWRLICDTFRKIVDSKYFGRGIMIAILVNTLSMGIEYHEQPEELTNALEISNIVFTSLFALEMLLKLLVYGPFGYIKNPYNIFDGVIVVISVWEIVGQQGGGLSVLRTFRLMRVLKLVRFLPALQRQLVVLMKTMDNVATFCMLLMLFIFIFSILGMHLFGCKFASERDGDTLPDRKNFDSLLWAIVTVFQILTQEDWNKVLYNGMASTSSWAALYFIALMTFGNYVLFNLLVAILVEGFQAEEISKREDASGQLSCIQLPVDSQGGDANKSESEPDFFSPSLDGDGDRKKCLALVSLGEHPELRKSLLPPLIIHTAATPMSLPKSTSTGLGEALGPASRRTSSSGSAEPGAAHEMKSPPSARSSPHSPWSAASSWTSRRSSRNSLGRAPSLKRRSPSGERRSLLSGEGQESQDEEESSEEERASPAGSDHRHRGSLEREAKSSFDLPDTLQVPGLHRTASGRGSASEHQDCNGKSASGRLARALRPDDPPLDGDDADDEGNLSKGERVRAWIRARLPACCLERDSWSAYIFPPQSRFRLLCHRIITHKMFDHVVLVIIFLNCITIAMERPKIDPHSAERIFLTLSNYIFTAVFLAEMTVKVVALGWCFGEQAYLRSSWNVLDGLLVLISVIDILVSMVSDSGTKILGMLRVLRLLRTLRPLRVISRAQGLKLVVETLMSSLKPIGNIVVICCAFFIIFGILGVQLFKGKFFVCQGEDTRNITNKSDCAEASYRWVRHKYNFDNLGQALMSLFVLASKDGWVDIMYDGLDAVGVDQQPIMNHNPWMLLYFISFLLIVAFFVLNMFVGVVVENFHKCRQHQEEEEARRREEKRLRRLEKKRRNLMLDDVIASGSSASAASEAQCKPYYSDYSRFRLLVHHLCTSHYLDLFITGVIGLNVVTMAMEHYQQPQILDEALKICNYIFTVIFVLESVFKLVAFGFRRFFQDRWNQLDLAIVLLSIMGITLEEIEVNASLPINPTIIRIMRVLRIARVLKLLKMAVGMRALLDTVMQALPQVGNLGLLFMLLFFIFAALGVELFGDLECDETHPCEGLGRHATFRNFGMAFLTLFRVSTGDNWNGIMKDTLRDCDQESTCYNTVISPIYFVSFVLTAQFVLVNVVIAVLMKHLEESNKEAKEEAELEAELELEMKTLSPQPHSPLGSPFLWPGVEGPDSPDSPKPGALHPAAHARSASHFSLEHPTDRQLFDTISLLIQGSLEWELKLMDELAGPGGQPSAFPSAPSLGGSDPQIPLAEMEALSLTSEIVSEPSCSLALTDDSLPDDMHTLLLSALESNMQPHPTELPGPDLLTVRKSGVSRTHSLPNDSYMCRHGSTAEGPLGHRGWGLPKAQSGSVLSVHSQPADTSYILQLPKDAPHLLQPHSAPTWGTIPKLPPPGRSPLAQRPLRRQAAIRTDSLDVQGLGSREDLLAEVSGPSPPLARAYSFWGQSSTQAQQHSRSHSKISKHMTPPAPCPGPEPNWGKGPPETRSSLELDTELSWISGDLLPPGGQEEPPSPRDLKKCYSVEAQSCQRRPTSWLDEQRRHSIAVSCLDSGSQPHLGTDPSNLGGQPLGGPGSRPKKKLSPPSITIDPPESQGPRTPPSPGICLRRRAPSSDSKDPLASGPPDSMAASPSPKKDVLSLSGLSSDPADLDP

In the case of `O=C(CCCCCCCCC[P+](c1ccccc1)(c1ccccc1)c1ccccc1)Oc1ccc(-c2cc(=S)ss2)cc1.[Br-]` [AP39], in assay [1] (setting [6]), the blood pressure result is “reduced”, the breathing rate result is on record as “transiently increased” and the heart rate result is listed as “reduced”. Further, in assay [1] (setting [7]), the blood pressure result was “sustained blood pressure (A) and heart rate (B) lowering effects”; the heart rate result is “sustained blood pressure (A) and heart rate (B) lowering effects”. In assay [1] (rats, FIGS. 20 to 22), the “effectiveness relative to Na2S at influencing blood pressure, heart rate and breathing rate” value is reported as 10-50 times. Moreover, in assay [2], the “vasodilatory effect on adrenaline-precontracted rat aorta” value is on record as “vasodilatory effects”. Further, the “4-HNE-derived intracellular oxidant species (DCFDA assay)” value in assay [3] (AP39 100 nM, FIGS. 14 and 15) is on record as “significantly reduced; also recorded: significantly decreased”. Further, the “time dependent increase in intracellular oxidative stress (DCFDA assay)” value in assay [3] (pretreatment with AP39 100 nM, FIG. 15) is “reduced”. For the same molecule, the “concentration of AP39 inhibiting CAv3.1 T-type calcium channels” value in assay [4] is above 300 nM. Moreover, the “vasodilatory effect on adrenaline-precontracted mesenteric arteries” value in assay [5] was “vasodilatory effects”.

(Values after patent US10058100B2, “Hydrogen sulfide releasing compounds and their use” (THE UNIVERSITY OF EXETER, priority 2011, dated 2018).)
